Literature values, collected in patent US20140079751A1, “METHOD OF USING COMPOSITE OF SILVER NANOPARTICLES AND NANOSILICATE PLATELETS TO INHIBIT GROWTH OF SILVER-RESISTANT BACTERIA” (priority 2010, published 2014).

Tested on: silver-resistant Escherichia coli (J53pMG101)
Conditions: background statement, Escherichia coli strain J53 pMG101

In the case of silver ions, the “silver ion concentration the strain can survive” value is listed as “more than 1 mM”.
